Data reported in article PMC10914731, “Homo-BacPROTAC-induced degradation of ClpC1 as a strategy against drug-resistant mycobacteria” (Nature Communications, 2024).
Converted amounts (≈) assume the structure as drawn. “And” between values parts separate entries of the source, which are not always exact repeats. Equal entries are not always repeated. Where two headings read alike, the source gives them in different places. *1 amine or outer side, *2 acyl side, *3 side chain or, on linkers, in order; H or OH if unused. Where a SMILES comes first, the peptide text is derived from it. [ ]: non-standard residue; d: D form. X1 = C#CCn1cc(C[C@H](N[*:1])C(=O)[*:2])c2ccccc21; NMeLeu(5-OH,4R) = CN[C@@H](C[C@@H](C)CO)C(=O)O; Phe(βR-OMe) = CO[C@H](c1ccccc1)[C@H](N)C(=O)O; Trp(1-Me) = Cn1cc(C[C@H](N)C(=O)O)c2ccccc21; NMeL = CN[C@@H](CC(C)C)C(=O)O; Pra = C#CC[C@H](N)C(=O)O

Key:
[1] = type: in vitro ADME, Human
[2] = Microsomal stability, human; type: in vitro ADME; details: for Microsomal Stability Human: clearance in microsomes
Outline: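 Read-out: parent loss by HPLC-MS/MS, first-order fit, half-life scaled to %Qh (well-stirred liver model). Conditions: 1 µmol/l cpd, 0.5 mg/ml microsomes, 100 mM Tris-HCl pH 7.5, 6.5 mM MgCl2, 1 mM NADPH, 37 °C; acetonitrile stop at multiple times.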

[3] = target: endogenous ClpC1 in Msm #607 cells (Mycolicibacterium smegmatis, UniProt A0R574); type: cell-based, M. smegmatis; details: for ClpC1 peak area: 100 µM, Figure 5c, well replicates of 3 experiments; for intracellular degradation of ClpC1: Msm #607, 24 h, result in words
endogenous ClpC1 in Msm #607 cells, sequence (A0R574 whole entry): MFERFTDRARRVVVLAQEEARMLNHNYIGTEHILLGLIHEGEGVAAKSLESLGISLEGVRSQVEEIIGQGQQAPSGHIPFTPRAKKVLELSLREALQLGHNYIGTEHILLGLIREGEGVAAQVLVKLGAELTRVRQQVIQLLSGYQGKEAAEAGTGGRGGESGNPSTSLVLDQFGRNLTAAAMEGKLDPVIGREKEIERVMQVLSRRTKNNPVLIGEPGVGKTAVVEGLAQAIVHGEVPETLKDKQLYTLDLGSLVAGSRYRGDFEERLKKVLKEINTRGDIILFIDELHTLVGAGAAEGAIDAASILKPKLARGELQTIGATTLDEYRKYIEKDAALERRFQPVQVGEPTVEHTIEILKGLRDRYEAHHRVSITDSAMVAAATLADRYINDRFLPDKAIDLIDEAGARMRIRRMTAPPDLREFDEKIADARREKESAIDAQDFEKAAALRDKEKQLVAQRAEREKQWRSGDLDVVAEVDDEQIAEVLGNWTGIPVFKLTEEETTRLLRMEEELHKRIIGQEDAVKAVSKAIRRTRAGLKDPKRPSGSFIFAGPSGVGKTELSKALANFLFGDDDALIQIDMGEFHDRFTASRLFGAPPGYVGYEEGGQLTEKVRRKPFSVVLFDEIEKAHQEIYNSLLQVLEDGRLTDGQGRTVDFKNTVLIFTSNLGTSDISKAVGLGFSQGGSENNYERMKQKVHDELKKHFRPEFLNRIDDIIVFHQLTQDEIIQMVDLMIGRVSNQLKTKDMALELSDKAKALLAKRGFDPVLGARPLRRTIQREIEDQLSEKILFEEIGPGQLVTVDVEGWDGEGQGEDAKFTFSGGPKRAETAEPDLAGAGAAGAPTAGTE

Pseudomonas aeruginosa = test: MIC ESKAPES panel, Pseudomonas aeruginosa; type: cell-based
Description: (§1) Minimum inhibitory concentration (MIC) against ESKAPES panel of Gram positive and Gram negative pathogens (Enterococcus faecium, Staphylococcus aureus, Klebsiella pneumoniae, Acinetobacter baumannii, Pseudomonas aeruginosa, Enterobacter cloacae and Salmonella typhimurium [ESKAPES panel]) were determined at the FNDR by the standard broth dilution method [CLSI, M100]. […] Mueller Hinton broth (MHB) medium was used to grow ESKAPES panel strains. The individual cultures were added as 200 μL (inoculum of 3–7 × 10^5 cfu/ml) to the respective assay plates in each well to all columns, except the media control (200 μL of medium). […] The assay plates were incubated at 37 °C, and the results were noted on the 2nd day as turbidometric readout. The clear wells indicated inhibition of growth, while the turbid wells indicated uninhibited growth.

[4] = type: in vitro ADME, Rat
Mycobacterium abscessus = test: microbe, parasite or virus in culture; type: cell-based
Acinetobacter baumannii = test: MIC ESKAPES panel, Acinetobacter baumannii; type: cell-based
Description: as §1

Enterococcus faecium = test: MIC ESKAPES panel, Enterococcus faecium; type: cell-based
Description: as §1

[5] = Gram-Negative Bacteria, replicates 1-3
[6] = Pseudomonas aeruginosa, Gram negative, n = 3 well replicates
[7] = Pseudomonas aeruginosa, Gram-Negative Bacteria, replicates 1-3
[8] = Experiment 2, three replicate columns
[9] = Experiment 2, three replicate columns, read-out: MIC (µM) Mycobacterium abscessus
[10] = Mycobacteroides abscessus, Experiment 1, read-out: MIC Mycobacterium abscessus
[11] = Mycobacteroides abscessus, Experiment 2, three replicate columns, read-out: MIC (µM) Mycobacterium abscessus
[12] = Mycobacteroides abscessus, Experiment 2, three replicate columns, read-out: MIC (µg/ml) Mycobacterium abscessus
[13] = Mycobacteroides abscessus, mean ± SD, read-out: MIC Mycobacterium abscessus
[14] = Gram negative, n = 3 well replicates, read-out: MIC Acinetobacter baumanii
[15] = Gram-Negative Bacteria, replicates 1-3, read-out: MIC Acinetobacter baumannii
[16] = Enterococcus faecium, Gram positive, n = 3 well replicates
[17] = Enterococcus faecium, Gram-Positive Bacteria, replicates 1-3
[18] = Gram-Positive Bacteria, replicates 1-3

Row | Structure (SMILES) | Hepatocyte Human ([1]; clearance in hepatocytes) [%Qh] | Microsomal Stability Human QH [2] [%] | Microsomal Stability Human [2] [%Qh] | ClpC1 peak area [3] | intracellular degradation of ClpC1 [3] | MIC (Pseudomonas aeruginosa; [5]) [µM] | MIC (Pseudomonas aeruginosa; [6]) [µM] | MIC (Pseudomonas aeruginosa; [7]) | Hepatocyte Rat ([4]; clearance in hepatocytes) [%Qh] | MIC (µg/ml) Mycobacterium abscessus (Mycobacterium abscessus; [8]) [µg/mL] | MIC (Mycobacterium abscessus; [9]) [µM] | MIC (Mycobacterium abscessus; [10]) | MIC (Mycobacterium abscessus; [11]) [µM] | MIC (Mycobacterium abscessus; [12]) [µg/mL] | MIC (Mycobacterium abscessus; [13]) [µM] | MIC (Acinetobacter baumannii; [14]) [µM] | MIC (Acinetobacter baumannii; [15]) | MIC (Enterococcus faecium; [16]) [µM] | MIC (Enterococcus faecium; [17]) | MIC (Enterococcus faecium; [18]) [µM] | also measured
1 | C#CC[C@@H]1NC(=O)[C@H](CC(C)C)N(C)C(=O)[C@H](C(C)C)NC(=O)[C@H]([C@H](OC)c2ccccc2)NC(=O)[C@H](C)NC(=O)[C@H](C[C@@H](C)CO)N(C)C(=O)[C@H](Cc2cn(C)c3ccccc23)NC1=O [Compound 10] (cyclo(A[Phe(βR-OMe)]V[NMeL][Pra][Trp(1-Me)][NMeLeu(5-OH,4R)])) | 12 | >88.400 | > 88 | 412581 and 373241 and 483939 and 462615 and 61275.5 and 294306 and 484139 and 455205 and 481589 | did not induce degradation of ClpC1 | >50 | > 50 | > 45.6 µg/mL | 70 | 11.41 (≈ 12.5 µM) | 12.5 | 12.5 µM and 11.4 µg/mL | 12.5 | 11.4 | 12.5 | > 50 | > 50 µM and > 45.6 µg/mL | > 50 | > 45.6 µg/mL | >50 | Hepatocyte Stability Rat QH ([4]; Rat): 69.830%
2 | C#CCn1cc(C[C@@H]2NC(=O)[C@H](C(C)C)NC(=O)[C@H](CC(C)C)N(C)C(=O)[C@H](C(C)C)NC(=O)[C@H]([C@H](OC)c3ccccc3)NC(=O)[C@H](C)NC(=O)[C@H](C[C@@H](C)CO)N(C)C2=O)c2ccccc21 [Compound 5] (cyclo(A[Phe(βR-OMe)]V[NMeL]V[X1][NMeLeu(5-OH,4R)])) |  | >88.400 | > 88 | 296040 and 308121 and 346162 and 550976 and 476988 and 428795 and 417149 and 443522 and 406576 | did not induce degradation of ClpC1 | >50 | > 50 | > 47 µg/mL |  | 5.88 (≈ 6.25 µM) | 6.25 | 3.1 µM and 2.9 µg/mL | 6.25 | 5.88 | 5.5 ± 1.6 | > 50 | > 50 µM and > 47 µg/mL | > 50 | > 47 µg/mL | >50 | Hepatocyte Human ([1]; human, pH 7.4): 12 %Qh; Hepatocyte Stability Human QH ([1]; human, pH 7.4): 12.386%; Hepatocyte Rat ([4]; rat, pH 7.4): 51 %Qh; Hepatocyte Stability Rat QH ([4]; rat, pH 7.4): 51.066%
3 | CO[C@H](c1ccccc1)[C@@H]1NC(=O)[C@H](C)NC(=O)[C@H](C[C@@H](C)CO)N(C)C(=O)[C@H](Cc2cn(Cc3cn(CCOCCn4cc(Cn5cc(C[C@@H]6NC(=O)[C@H](C(C)C)NC(=O)[C@H](CC(C)C)N(C)C(=O)[C@H](C(C)C)NC(=O)[C@H]([C@H](OC)c7ccccc7)NC(=O)[C@H](C)NC(=O)[C@H](C[C@@H](C)CO)N(C)C6=O)c6ccccc65)nn4)nn3)c3ccccc23)NC(=O)[C@H](C(C)C)NC(=O)[C@H](CC(C)C)N(C)C(=O)[C@H](C(C)C)NC1=O [Compound 6] | 12 | 69.600 | 70 |  |  |  |  |  | 6 |  |  |  |  |  |  |  |  |  |  |  | 
4 | COc1c(N2C[C@@H]3CCCN[C@@H]3C2)c(F)cc2c(=O)c(C(=O)O)cn(C3CC3)c12 [Moxifloxacin, reference compound] |  |  |  |  |  |  | 2.5 | 2.49 µM and 1 µg/mL |  | 1 (≈ 2.49 µM) | 2.49 | 2.49 µM and 1 µg/mL | 2.49 | 1 | 2.5 | 0.3 (≈ 0.12 µg/mL) | 0.31 µM and 0.125 µg/mL | 79.7 | 79.7 µM and 32 µg/mL |  | 
